In PubChem BioAssay AID1224920 (Broad Institute, 2016):
The source made the active and inactive calls.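 Rule for the calls: active = IC50 no higher than ten times the top tested dose; inconclusive = flat fit with 30 to 70% inhibition, or poor fit; inactive = IC50 above ten times the top dose.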

Test: growth modulation of Clostridium difficile isolate – OD600, 9-point, retest, dose response (AID 1224920);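 note: plate controls were DMSO for no effect and levofloxacin control for full effect; inhibitors lower culture turbidity so OD600 falls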
Details: Clostridium difficile clinical isolate growth, OD600, 24 h

Compound | activity change, negative = inhibition (at 120 µM (top of the series)) | activity change, negative = inhibition (at 135 µM (top of the series)) | other results
N#Cc1cccc(-c2ccc(C3[C@@H]4CN(Cc5cocn5)C[C@H]3N4)cc2)c1 (stereo not given in full) | 39.4% (inactive) | – | –
C[C@@H]1CN([C@@H](C)CO)C(=O)Cc2cc(NS(=O)(=O)c3ccccc3)ccc2O[C@@H]1CN(C)Cc1ccc(Oc2ccccc2)cc1 | 39.5% (inactive) | – | –
CC(=O)N1[C@H](CO)[C@@H](c2ccccc2)[C@H]1CN(C)C(=O)CN1CCOCC1 | – | -1.86% (inactive) | –
Cc1ccccc1S(=O)(=O)N1CC[C@@H]2[C@@H](CO)Nc3ccc(-c4ccc(F)cc4)cc3[C@@H]21 | 46.1% (inactive) | – | –
CCCNC(=O)N1[C@H](C#N)[C@@H](c2ccccc2-c2ccc(C)cc2)[C@@H]1CO | 17% (inactive) | – | –
C/C=C/c1ccc([C@H]2[C@H](CO)N(C(=O)CC)[C@H]2CNC(=O)CC)cc1 | – | -9.32% (inactive) | –
O=C(Nc1cccc(F)c1)N1CC(=O)N2[C@H](C1)[C@H](c1ccc(-c3cccc(F)c3)cc1)[C@@H]2CO | – | 37.9% (inactive) | –
COc1ccc2c3c(n(C)c2c1)[C@H](CO)NCC31CN(Cc2ccc(F)cc2)C1 | – | – | activity change, negative = inhibition (at 60 µM (top of the series)): 7.43% (inactive)
C/C=C/c1ccc([C@@H]2[C@H](CO)N(C(=O)CC)[C@H]2CNC(=O)CC)cc1 | -7.3% (inactive) | – | –
COc1ccccc1S(=O)(=O)N1CC[C@@H]2[C@@H](CO)Nc3ccc(-c4ccc(F)cc4)cc3[C@@H]21 | – | 47% (inactive) | –
COc1ccc(-c2ccccc2[C@@H]2[C@@H](C#N)N(C(=O)NC3CCCCC3)[C@H]2CO)cc1 | 9.48% (inactive) | – | –
COc1ccc(-c2ccc3c(c2)[C@H]2[C@H](CCN2C(=O)Cc2cccnc2)[C@H](CO)N3C)cc1 | 28.9% (inactive) | – | –
COc1ccc2c3c(n(C)c2c1)[C@@H](CO)N(C(=O)c1ccncc1)CC31CN(C)C1 | 3.53% (inactive) | – | –
C/C=C/c1ccc([C@H]2[C@@H](CNC(=O)c3ccccn3)N(C(C)=O)[C@H]2CO)cc1 | – | -7.58% (inactive) | –
O=C(Nc1ccc(F)cc1)N1CCCCN2[C@H](C1)[C@@H](c1ccc(-c3cccc(F)c3)cc1)[C@@H]2CO | 43.3% (inactive) | – | –
N#C[C@@H]1[C@H](c2ccccc2-c2cccc(F)c2)[C@H](CO)N1C(=O)Cc1cccnc1 | – | 9.55% (inactive) | –
CN(C)C(=O)C[C@@H]1CC[C@@H]2[C@@H](COc3ccc(NC(=O)C4CCC4)cc3C(=O)N2C)O1 | 0.255% (inactive) | – | –
COc1ccc(S(=O)(=O)N2CCCCN3[C@H](CO)[C@@H](c4ccc(C#CC(C)C)cc4)[C@H]3C2)cc1 | 39.3% (inactive) | – | –
C/C=C/c1ccc(C2[C@@H]3CN(C(=O)Nc4ccc(F)cc4)C[C@H]2N3)cc1 (stereo not given in full) | – | – | activity change, negative = inhibition (at 68 µM (top of the series)): 49.5% (inactive)
Cc1cccc(-c2ccc(C3[C@@H]4CN(C(=O)C5CCC5)C[C@H]3N4)cc2)c1 (stereo not given in full) | – | – | activity change, negative = inhibition (at 60 µM (top of the series)): 39.3% (inactive)
COc1ccc2c3c([nH]c2c1)[C@H](CO)N(C(=O)c1ccccc1)CC31CN(C(=O)Nc2cccc(F)c2)C1 | 39% (inactive) | – | –
O=C(c1cccc(F)c1)N1CC[C@@H]2[C@@H](CO)Nc3ccc(C#Cc4ccc(F)cc4)cc3[C@@H]21 | 38.1% (inactive) | – | –
C/C=C/c1ccc([C@H]2[C@@H](CO)N(C(=O)CC)[C@@H]2CNC(=O)CC)cc1 | – | -8.82% (inactive) | –
CC(=O)N(C)C[C@H]1[C@@H](c2ccc(-c3ccccc3F)cc2)[C@@H](CO)N1C(C)=O | -10.3% (inactive) | – | –
COc1ccc(NC(=O)N2CC[C@@H]3[C@H]2c2cc(Br)ccc2N(C)[C@@H]3CO)cc1 | – | 17.8% (inactive) | –
